In the assay the test system is E. coli. Briefly: Time-kill study of E. coli exposed to ciprofloxacin, measured by infrared thermography (Energy Number). Format: cell-based, Escherichia coli. The following applies: starting inoculum approx. 2×10^6 CFU/ml, 37° C., 0-24 hours. The protocol: It was desired to evaluate utility of the system in a real-time method to measure bacterial growth and death as a function of exposure to an antimicrobial. For that purpose, time-kill studies were performed using E. coli cultures, established substantially as set forth in Example 2. A series of microtiter plates were inoculated with an overnight culture of a representative gram-negative E. coli strain to achieve a starting inoculum of approximately 2×10^6 CFU/ml per well. Test wells were exposed to nine concentrations of an antimicrobial agent of a representative fluoroquinolone (ciprofloxacin) ranging from 0- to 32-fold minimum inhibitory concentration (MIC). […] of those treatments (0, […], 1, 2, 4, and 8-fold MIC) were subcultured for determination of viable cell counts. Control wells received no ciprofloxacin. […] Post-imaging, the contents of the designated wells were removed and the number of viable bacteria in each well was determined using drop and filter count methods.
FIGS. 7a and 7b set forth the changes in bacterial viable counts and the Energy Number of the medium over time, respectively. The Energy Number of the medium over time as determined from thermodynamic modeling of the IR images collected by the detector was highly correlated (R^2=0.9891) to the viable counts obtained following 24 hr incubation (see FIG. 7c).

The results in this text go back to US20100311109A1, “NON-CONTACT METHOD FOR Q[…] IN THE DYNAMICS OF MICROBIAL POPULATIONS” (priority 2009, published 2010).

Consider `O=C(O)c1cn(C2CC2)c2cc(N3CCNCC3)c(F)cc2c1=O` [ciprofloxacin], for which the “IRT time-kill result (Energy Number over time)” value reads like this: (highest (16.0 and 32.0-fold MIC) concentration) “rapid bacterial killing”; (lowest (0.125 and 0.25-fold MIC) concentration) “net bacterial growth”.
